What all share (assay type): in vivo
One data set has as its system Lolium rigidum (LOLRI). As to the kind of experiment: Pre-emergence herbicidal action against LOLRI. The settings on record: dosage 320 g/ha. The essentials:
(§1)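 Read-out is visual percent damage relative to untreated pots, with 100% meaning dead plants and 0% meaning no difference, assessed roughly three weeks after treatment. Compounds were applied pre-emergence to the covering soil at up to 320 g/ha.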

Data set [1] concerns Oryza sativa (ORYSA). The settings on record: pre-emergence, crop plant compatibility, in comparison to untreated controls. The essentials:
(§2)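 Scoring: visual, % of untreated control, about 3 weeks after a pre-emergence application to the soil surface. Application used WP or EC formulations diluted in water with 0.5% additive at 600 l/ha; dosage levels are marked by suffixes a, b and c.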

The subject of data set [2] is Zea mays (ZEAMX). The settings on record: pre-emergence, crop plant compatibility, in comparison to untreated controls. The gist of the method:
as §2

Data set [3] relates to Matricaria inodora (MATIN). The experiment in a line: Pre-emergence herbicidal action against MATIN. The settings on record: dosage 320 g/ha. The essentials:
as §1

Data set [4] deals with Alopecurus myosuroides (ALOMY). As to the kind of experiment: Post-emergence herbicidal action against ALOMY. The following applies: 320 g/ha, visual rating about 3 weeks after treatment vs untreated controls (100% = plants have died, 0% = like control plants). The essentials:
(§3)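 Values are percent visual activity (0% like control, 100% plants dead) after about 3 weeks in the greenhouse. Treatment: post-emergence spray at one-leaf stage, 600 l/ha spray volume, 0.5% additive, doses 320 g/ha or lower.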

Data set [5] has as its system Setaria viridis (SETVI). As to the kind of experiment: Post-emergence herbicidal action against SETVI. The settings on record: dosage 320 g/ha. The gist of the method:
as §3

Data set [6] has as its system Polygonum convolvulus (POLCO). The experiment in a line: Post-emergence herbicidal action against POLCO. The settings on record: dosage 320 g/ha. The essentials:
as §3

Data set [7] relates to Pharbitis purpurea (PHBPU). As to the kind of experiment: Pre-emergence herbicidal action against PHBPU. The settings on record: dosage 320 g/ha. The essentials:
as §1

Data set [8] concerns Amaranthus retroflexus (AMARE). The experiment in a line: Post-emergence herbicidal action against AMARE. The essentials: as §3
Data set [9] concerns Matricaria inodora (MATIN). The experiment in a line: Post-emergence herbicidal action against MATIN. The following applies: dosage 320 g/ha. The essentials: as §3
In data set [10] the test system is Echinochloa crus-galli (ECHCG). As to the kind of experiment: Pre-emergence herbicidal action against ECHCG. The following applies: dosage 320 g/ha. The essentials:
as §1

Data set [11] concerns Setaria viridis (SETVI). As to the kind of experiment: Pre-emergence herbicidal action against SETVI. The following applies: dosage 320 g/ha. The gist of the method: as §1
Data set [12] concerns Pharbitis purpurea (PHBPU). The experiment in a line: Post-emergence herbicidal action against PHBPU. The following applies: dosage 320 g/ha. The gist of the method: as §3
Data set [13] concerns Echinochloa crus-galli (ECHCG). The experiment in a line: Post-emergence herbicidal action against ECHCG. The essentials:
as §3

The subject of data set [14] is Amaranthus retroflexus (AMARE). The experiment in a line: Pre-emergence herbicidal action against AMARE. The settings on record: 320 g/ha, visual scoring after about 3 weeks vs untreated controls. The essentials:
as §1

The subject of data set [15] is Viola tricolor (VIOTR). The experiment in a line: Pre-emergence herbicidal action against VIOTR. The essentials:
as §1

In data set [16] the test system is Oryza sativa (ORYSA). The settings on record: crop plant compatibility, effect in comparison to untreated controls. The essentials: (§4)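 Visual rating (% effect vs. untreated plants; 100% = plant death) made about 3 weeks after treatment. Plants had been sprayed at one-leaf stage, 2–3 weeks post-sowing, with aqueous WP/EC preparations containing 0.5% additive, 600 l/ha water volume; a, b, c mark dose levels.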

The subject of data set [17] is Avena fatua (AVEFA). The experiment in a line: Post-emergence herbicidal action against AVEFA. The following applies: 320 g/ha, visual rating about 3 weeks after treatment. The gist of the method:
as §3

Data set [18] has as its system Verconica persica (VERPE). The experiment in a line: Post-emergence herbicidal action against VERPE. The settings on record: 320 g/ha, VERPE. The gist of the method: as §3
For data set [19], the system named is Polygonum convolvulus (POLCO). The experiment in a line: Pre-emergence herbicidal action against POLCO. The following applies: dosage 320 g/ha. The essentials: as §1
Data set [20] deals with Avena fatua (AVEFA). The experiment in a line: Pre-emergence herbicidal action against AVEFA. The settings on record: 320 g/ha, visual scoring after about 3 weeks vs untreated controls. The essentials:
as §1

The test system of data set [21] is Viola tricolor (VIOTR). The experiment in a line: Post-emergence herbicidal action against VIOTR. The settings on record: 320 g/ha. The gist of the method: as §3
Data set [22] deals with Verconica persica (VERPE). As to the kind of experiment: Pre-emergence herbicidal action against VERPE. The following applies: dosage 320 g/ha. The essentials:
as §1

The test system of data set [23] is Zea mays (ZEAMX). The settings on record: crop plant compatibility, effect vs untreated controls. The gist of the method: as §4
Data set [24] deals with Triticum aestivum (TRZAS). The settings on record: crop plant compatibility, 80 g/ha, effect vs untreated controls. The gist of the method: as §4
The mark [25] stands for this setting: 320 g/ha, visual rating about 3 weeks after treatment.

The values that follow come from patent US20240041042A1, “1-(PYRIDYL)-5-AZINYLPYRAZOLE DERIVATIVES, AND THEIR USE FOR CONTROL OF UNDESIRED PLANT GROWTH” (Bayer Aktiengesellschaft, priority 2020, published 2024).

Like-named read-outs stand apart in the source and are kept apart here.

`CCOC(=O)CSc1nn(-c2ccccn2)c(-c2cncc(F)c2)c1C1CC1` [Example I-156]: in the data set with Lolium rigidum (LOLRI), the “Pre-emergence action against LOLRI in %” value amounted to 80%. Further, in the data set on Oryza sativa (ORYSA) [1] (80 g/ha), the “Pre-emergence action against ORYSA in %” value stood at 0%. Besides, the “Pre-emergence action against ZEAMX in %” value with Zea mays (ZEAMX) [2] (80 g/ha) was 0%; in the data set with Zea mays (ZEAMX) [2] (320 g/ha) it was 20%. For the same molecule, the “Pre-emergence action against MATIN in %” value in [3] was 80%. The “Post-emergence action against ALOMY in %” value in data set [4] is reported as 80%. For the same molecule, the “Post-emergence action against SETVI in %” value in the data set on Setaria viridis (SETVI) [5] was determined as 80%. The “Post-emergence action against POLCO in %” value in data set [6] is recorded as 80%. The “Pre-emergence action against PHBPU in %” value in data set [7] is 80%. Also, the “Post-emergence action against AMARE in %” value in [8] (80 g/ha, visual rating about 3 weeks after treatment vs untreated controls (100% = plants have died, 0% = like control plants)) stood at 80%; in data set [8] (setting [25]) it was 90%. In addition, the “Post-emergence action against MATIN in %” value in data set [9] came out at 80%. Also, the “Pre-emergence action against ECHCG in %” value in data set [10] was 90%. Further, the “Pre-emergence action against SETVI in %” value with Setaria viridis (SETVI) [11] worked out at 90%. Also, in data set [12], the “Post-emergence action against PHBPU in %” value is 90%. Besides, the “Post-emergence action against ECHCG in %” value in [13] (dosage 80 g/ha) and in [13] (dosage 320 g/ha) was 80% each time. Moreover, the “Pre-emergence action against AMARE in %” value in data set [14] came to 100%. Moreover, the “Pre-emergence action against VIOTR in %” value in the data set with Viola tricolor (VIOTR) [15] (320 g/ha, Viola tricolor) stood at 90%; in the data set on Viola tricolor (VIOTR) [15] (dosage 80 g/ha) it was 80%. For the same molecule, the “Post-emergence action against ORYSA in %” value in the data set with Oryza sativa (ORYSA) [16] (80 g/ha) stood at 0%. The “Post-emergence action against AVEFA in %” value with Avena fatua (AVEFA) [17] is recorded as 90%. Further, the “Post-emergence action against VERPE in %” value in [18] is given as 80%.
Take `C=CCNC(=O)COc1nn(-c2ncccc2F)c(-c2ccc(F)nc2)c1Br` [Example I-31]: the “Pre-emergence action against POLCO in %” value in [19] was 80%. Further, the “Pre-emergence action against ORYSA in %” value in the data set with Oryza sativa (ORYSA) [1] (80 g/ha) and in the data set with Oryza sativa (ORYSA) [1] (320 g/ha) was 0% throughout. For the same molecule, the “Pre-emergence action against ZEAMX in %” value in the data set on Zea mays (ZEAMX) [2] (80 g/ha) stood at 0%. Moreover, the “Post-emergence action against POLCO in %” value in data set [6] was determined as 80%. Further, the “Post-emergence action against AMARE in %” value in data set [8] (setting [25]) was determined as 80%. Moreover, in the data set on Avena fatua (AVEFA) [20], the “Pre-emergence action against AVEFA in %” value stood at 80%. Also, the “Pre-emergence action against ECHCG in %” value in data set [10] is recorded as 90%. In addition, the “Pre-emergence action against SETVI in %” value in the data set with Setaria viridis (SETVI) [11] came out at 90%. Besides, in data set [14], the “Pre-emergence action against AMARE in %” value is recorded as 90%. For the same molecule, the “Post-emergence action against VIOTR in %” value in the data set with Viola tricolor (VIOTR) [21] amounted to 80%. In data set [22], the “Pre-emergence action against VERPE in %” value is reported as 90%. Besides, the “Pre-emergence action against VIOTR in %” value in the data set on Viola tricolor (VIOTR) [15] (320 g/ha, Viola tricolor) is 90%. Further, the “Post-emergence action against ORYSA in %” value in the data set with Oryza sativa (ORYSA) [16] (80 g/ha) was determined as 0%; with Oryza sativa (ORYSA) [16] (320 g/ha), 10%. Also, the “Post-emergence action against ZEAMX in %” value with Zea mays (ZEAMX) [23] (80 g/ha) and in the data set on Zea mays (ZEAMX) [23] (320 g/ha) was 0% throughout. Besides, in data set [24], the “Post-emergence action against TRZAS in %” value is given as 10%.
